Reference: patent US20250027055A1, “METHOD OF CULTURING THREE-DIMENSIONAL CELLULAR TISSUES” (priority 2021, published 2025)

Key:
[1] = test system: vascular endothelial cells; experiment: Comparative experiment: liver tissue of hepatocytes only and separate three-dimensional tissue of vascular endothelial cells and hepatic stellate cells in the same well, monocrotaline exposure; CD31 fluorescent immunostaining; assay type: cell-based; details: hepatocyte tissue and endothelial/stellate tissue separate, not in contact, various concentrations of monocrotaline, FIG. 2B
Source text: FIG. 2A is a schematic diagram illustrating a comparative experiment. […] Then, after exposure to various concentrations of monocrotaline, these tissues were fixed and stained for CD31 by fluorescent immunostaining.
FIG. 2B is a fluorescence microscopy image showing the results of immunostaining.

[2] = test system: vascular endothelial cells; experiment: Monocrotaline exposure of three-dimensional cellular tissue containing hepatocytes, vascular endothelial cells and hepatic stellate cells; CD31 fluorescent immunostaining; assay type: cell-based; details: mixed three-cell-type three-dimensional tissue; exposure to various concentrations of monocrotaline; FIG. 1B
Source text: FIG. 1A is a schematic diagram illustrating the above experiment. […] Then, after exposure to various concentrations of monocrotaline, the three-dimensional cellular tissue was fixed and stained for CD31 by fluorescent immunostaining. CD31 is a marker for endothelial cells.
The upper row of FIG. 1B is a fluorescence microscopy image showing the results of immunostaining. The lower row of FIG. 1B is a skeletonized image obtained by processing the image in the upper row of FIG. 1B.

## C[C@H]1C(=O)O[C@@H]2CCN3CC=C(COC(=O)[C@](C)(O)[C@]1(C)O)[C@H]23 [monocrotaline]
[1]
  damage to the vascular endothelial cells of the blood vessels (CD31 immunostaining): no damage to the vascular endothelial cells of the blood vessels was observed
[2]
  damage to the vascular endothelial cells of the blood vessels (CD31 immunostaining): damaged in a monocrotaline concentration-dependent manner
